Experimental data taken from ChEMBL document CHEMBL1909046, “DrugMatrix in vitro pharmacology data”.

Tests used:
[1] = biological target: Aldo-keto reductase family 1 member B1 (Rattus norvegicus, UniProt P07943); experiment: biochemical; assay type: tissue-based, Lens of camera-type eye;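 note: inhibition of aldose reductase enzyme activity, measured with DL-glyceraldehyde as the substrate; in other assays of this panel Not Active means under 50% inhibition at 10 µM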
[2] = DRUGMATRIX: Glutamate, NMDA, Agonism radioligand binding (ligand: [3H] CGP-39653); assay type: cell membranes, Rattus norvegicus, Wistar, Cerebral cortex, Membrane; conditions: Not Active = under 50% inhibition at 10 µM
[3] = biological target: Melanocortin receptor 5 (Homo sapiens, UniProt P33032); assay type: cell membranes, HEK293, Membrane; conditions: hek293; note: in other assays of this panel Not Active means under 50% inhibition at 10 µM
Chain of Melanocortin receptor 5 (P33032 whole entry): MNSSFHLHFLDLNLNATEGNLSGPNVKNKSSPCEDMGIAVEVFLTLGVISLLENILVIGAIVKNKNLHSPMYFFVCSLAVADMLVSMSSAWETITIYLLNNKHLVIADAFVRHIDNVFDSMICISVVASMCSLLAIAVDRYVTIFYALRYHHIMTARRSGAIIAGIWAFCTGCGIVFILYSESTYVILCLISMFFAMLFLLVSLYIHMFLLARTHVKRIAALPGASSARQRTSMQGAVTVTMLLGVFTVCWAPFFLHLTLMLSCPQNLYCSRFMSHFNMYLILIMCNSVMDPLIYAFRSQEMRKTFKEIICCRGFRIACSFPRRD

[4] = biological target: C-C chemokine receptor type 5 (Homo sapiens, UniProt P51681); assay type: cell membranes, Membrane; conditions: hek293; note: in other assays of this panel Not Active means under 50% inhibition at 10 µM
Chain of C-C chemokine receptor type 5 (P51681 whole entry): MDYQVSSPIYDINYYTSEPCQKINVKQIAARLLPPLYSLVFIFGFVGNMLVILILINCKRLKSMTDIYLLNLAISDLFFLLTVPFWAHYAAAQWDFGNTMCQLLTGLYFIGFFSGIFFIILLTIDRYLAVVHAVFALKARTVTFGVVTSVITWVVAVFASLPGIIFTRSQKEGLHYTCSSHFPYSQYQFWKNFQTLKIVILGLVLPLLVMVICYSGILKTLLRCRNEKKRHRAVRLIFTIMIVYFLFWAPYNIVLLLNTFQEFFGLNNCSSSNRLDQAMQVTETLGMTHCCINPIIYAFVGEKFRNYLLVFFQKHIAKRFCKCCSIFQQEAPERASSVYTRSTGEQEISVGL

[5] = DRUGMATRIX: Potassium Channel [KATP] radioligand binding (ligand: [3H] Glyburide); assay type: cell membranes, Membrane; conditions: hit-t15; Not Active = under 50% inhibition at 10 µM
[6] = DRUGMATRIX: Platelet-Derived Growth Factor (PDGF) radioligand binding (ligand: [125I] PDGF); assay type: cell-based; conditions: nih3t3; Not Active = under 50% inhibition at 10 µM
[7] = biological target: T1, Adenosine receptor A1 (Homo sapiens, UniProt P30542); assay type: cell membranes, CHO, Membrane; conditions: cho;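 note: radioligand binding assay at the adenosine A1 receptor, with DPCPX serving as the labelled ligand; in other assays of this panel Not Active means under 50% inhibition at 10 µM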
T1 sequence (P30542 whole entry): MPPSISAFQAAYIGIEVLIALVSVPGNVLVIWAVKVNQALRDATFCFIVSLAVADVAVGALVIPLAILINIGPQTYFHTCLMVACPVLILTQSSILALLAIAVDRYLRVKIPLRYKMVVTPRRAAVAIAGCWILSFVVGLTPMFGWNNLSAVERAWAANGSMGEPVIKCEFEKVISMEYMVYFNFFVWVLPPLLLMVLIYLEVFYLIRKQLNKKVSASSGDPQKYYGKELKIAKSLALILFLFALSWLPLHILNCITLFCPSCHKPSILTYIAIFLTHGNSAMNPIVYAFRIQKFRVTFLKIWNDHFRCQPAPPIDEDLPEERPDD

[8] = biological target: T2, Cysteinyl leukotriene receptor 1 (Homo sapiens, UniProt Q9Y271); assay type: cell membranes, CHO-K1, Membrane; conditions: cho-k1; note: in other assays of this panel Not Active means under 50% inhibition at 10 µM
T2 sequence (Q9Y271 whole entry): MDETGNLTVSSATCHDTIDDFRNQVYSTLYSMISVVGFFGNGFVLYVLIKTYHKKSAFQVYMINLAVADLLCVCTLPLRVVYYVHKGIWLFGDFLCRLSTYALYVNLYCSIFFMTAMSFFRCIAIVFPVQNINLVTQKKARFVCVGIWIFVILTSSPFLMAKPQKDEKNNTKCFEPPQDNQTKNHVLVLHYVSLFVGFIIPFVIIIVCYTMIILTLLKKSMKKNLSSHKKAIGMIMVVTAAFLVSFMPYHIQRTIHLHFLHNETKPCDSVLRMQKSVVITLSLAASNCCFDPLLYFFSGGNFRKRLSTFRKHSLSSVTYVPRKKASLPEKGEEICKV

Cc1ccccc1N1C(=O)c2cc(S(N)(=O)=O)c(Cl)cc2NC1C (stereo unspecified) [METOLAZONE]
Not Active: IC50 [1] | IC50 [2] | Ki [2] | IC50 [3] | IC50 [4] | IC50 [5] | Ki [5] | IC50 [6] | Ki [6] | IC50 [7] | IC50 [8]

COCCc1ccc(OCC(O)CNC(C)C)cc1 (stereo unspecified) [METOPROLOL]
Not Active: IC50 [1] | IC50 [2] | Ki [2] | IC50 [3] | IC50 [4] | IC50 [5] | Ki [5] | IC50 [6] | Ki [6] | IC50 [7] | IC50 [8]

CCn1cc(C(=O)O)c(=O)c2cc(F)c(N3CCNCC3)cc21 [NORFLOXACIN]
Not Active: IC50 [1] | IC50 [2] | Ki [2] | IC50 [3] | IC50 [4] | IC50 [5] | Ki [5] | IC50 [6] | Ki [6] | IC50 [7] | IC50 [8]

NC1=NC(=O)C(c2ccccc2)O1 (stereo unspecified) [PEMOLINE]
Not Active: IC50 [1] | IC50 [2] | Ki [2] | IC50 [3] | IC50 [4] | IC50 [5] | Ki [5] | IC50 [6] | Ki [6] | IC50 [7] | IC50 [8]

Nc1nc2c(ncn2CCC(CO)CO)c(=O)[nH]1 [PENCICLOVIR]
Not Active: IC50 [1] | IC50 [2] | Ki [2] | IC50 [3] | IC50 [4] | IC50 [5] | Ki [5] | IC50 [6] | Ki [6] | IC50 [7] | IC50 [8]

C=C(C)C1(O)OC(=O)C=C1OC (stereo unspecified) [PENICILLIC ACID]
Not Active: IC50 [1] | IC50 [2] | Ki [2] | Ki [3] | IC50 [4] | IC50 [5] | Ki [5] | IC50 [6] | Ki [6] | IC50 [7] | IC50 [8]

CC1(C)S[C@@H]2[C@H](NC(=O)Cc3ccccc3)C(=O)N2[C@H]1C(=O)O [PENICILLIN G]
Not Active: IC50 [1] | IC50 [2] | Ki [2] | IC50 [3] | IC50 [4] | IC50 [5] | Ki [5] | IC50 [6] | Ki [6] | IC50 [7] | IC50 [8]

CCCN1C[C@H](CSC)C[C@@H]2c3cccc4[nH]cc(c34)C[C@H]21 [PERGOLIDE]
Not Active: IC50 [1] | IC50 [2] | Ki [2] | IC50 [3] | IC50 [4] | IC50 [5] | Ki [5] | IC50 [6] | Ki [6] | IC50 [7] | IC50 [8]

C1CCC(C(CC2CCCCN2)C2CCCCC2)CC1 (stereo unspecified) [PERHEXILINE]
Not Active: IC50 [1] | IC50 [2] | Ki [2] | IC50 [3] | IC50 [4] | IC50 [5] | Ki [5] | IC50 [6] | Ki [6] | IC50 [7] | IC50 [8]

CCOc1ccc(NC(C)=O)cc1 [PHENACETIN]
Not Active: IC50 [1] | IC50 [2] | Ki [2] | IC50 [3] | IC50 [4] | IC50 [5] | Ki [5] | IC50 [6] | Ki [6] | IC50 [7] | IC50 [8]

Cc1ccc(N(CC2=NCCN2)c2cccc(O)c2)cc1 [PHENTOLAMINE]
Not Active: IC50 [1] | IC50 [2] | Ki [2] | IC50 [3] | IC50 [4] | IC50 [5] | Ki [5] | IC50 [6] | Ki [6] | IC50 [7] | IC50 [8]

CNNCc1ccc(C(=O)NC(C)C)cc1 [PROCARBAZINE]
Not Active: IC50 [1] | IC50 [2] | Ki [2] | IC50 [3] | IC50 [4] | IC50 [5] | Ki [5] | IC50 [6] | Ki [6] | IC50 [7] | IC50 [8]

CN(C)CCCN1c2ccccc2Sc2ccccc21 [PROMAZINE]
Not Active: IC50 [1] | IC50 [2] | Ki [2] | IC50 [3] | IC50 [4] | IC50 [5] | Ki [5] | IC50 [6] | Ki [6] | IC50 [7] | IC50 [8]

CC(O)CO (stereo unspecified) [PROPYLENE GLYCOL]
Not Active: IC50 [1] | IC50 [2] | Ki [2] | IC50 [3] | IC50 [4] | IC50 [5] | Ki [5] | IC50 [6] | Ki [6] | IC50 [7] | IC50 [8]

CADMIUM ACETATE
Not Active: IC50 [1] | Ki [1] | IC50 [2] | Ki [2] | IC50 [3] | Ki [3] | IC50 [4] | Ki [4] | IC50 [5] | Ki [5] | IC50 [6] | Ki [6] | IC50 [7] | Ki [7] | IC50 [8] | Ki [8]

LEAD (II) ACETATE
Not Active: IC50 [1] | Ki [1] | IC50 [2] | Ki [2] | IC50 [3] | Ki [3] | IC50 [4] | Ki [4] | IC50 [5] | Ki [5] | IC50 [6] | Ki [6] | IC50 [7] | Ki [7] | IC50 [8] | Ki [8]
